pIC50: −log10 of the molar value.
Molecular target: USP30 (Homo sapiens (Human), UniProt Q70CQ3)
Test: USP30 biochemical IC50 assay (fluorescence polarisation)
Settings: enzyme and compound incubated 30 min at room temp; TAMRA labelled peptide-ubiquitin substrate 50 nM; read after 2 hr incubation; read-out: IC50 range
Protocol: USP30 Biochemical IC50 Assay
Dilution plates were prepared at 21 times the final concentration ([…] for a final concentration of 100 μM) in 50% DMSO in a 96-well polypropylene V-bottom plate (Greiner #651201). A typical 8-point dilution series to be 100, 30, 10, 3, 1, 0.3, 0.1, […].
Reactions were performed in duplicate in black 384 well plates (small volume, Greiner 784076) in a final reaction volume of 21 μl. Either 1 μl of 50% DMSO or diluted compound was added to the plate. USP30 was diluted in reaction buffer (40 mM Tris, pH 7.5, 0.005% Tween 20, 0.5 mg/ml BSA, 5 mM beta-mercaptoethanol) to the equivalent of 0.05 µl/well and 10 μl of diluted USP30 was added to the compound. Enzyme and compound were incubated for 30 min at room temp. Reactions were initiated by the addition of 50 nM of TAMRA labelled peptide linked to ubiquitin via an iso-peptide bond as fluorescence polarisation substrate. Reactions were read immediately after addition of substrate and following a 2 hr incubation at room temperature. Readings were performed on a Pherastar Plus (BMG Labtech). λ Excitation 540 nm; λ Emission 590 nm.

Sequence of USP30 (Q70CQ3 57-517): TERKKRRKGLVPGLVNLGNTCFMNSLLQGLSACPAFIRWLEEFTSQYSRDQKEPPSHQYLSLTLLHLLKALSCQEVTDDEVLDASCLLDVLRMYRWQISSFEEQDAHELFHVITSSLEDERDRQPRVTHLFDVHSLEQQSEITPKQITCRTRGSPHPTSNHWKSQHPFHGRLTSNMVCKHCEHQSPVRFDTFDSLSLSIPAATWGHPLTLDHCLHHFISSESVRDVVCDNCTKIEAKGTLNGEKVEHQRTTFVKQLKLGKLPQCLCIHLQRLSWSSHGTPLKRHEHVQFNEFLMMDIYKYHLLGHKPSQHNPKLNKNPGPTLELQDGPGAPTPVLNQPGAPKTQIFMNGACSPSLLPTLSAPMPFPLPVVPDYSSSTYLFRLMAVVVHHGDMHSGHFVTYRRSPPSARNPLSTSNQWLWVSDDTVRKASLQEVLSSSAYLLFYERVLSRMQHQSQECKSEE

| Structure (SMILES) | pIC50 |
| --- | --- |
| C[C@H]1CN(C#N)C[C@@H]1C(=O)N1CCc2cc(-c3ccccc3)ccc21 [Example 20, (3R,4R)-3-Methyl-4-(5-phenylindoline-1-carbonyl)pyrrolidine-1-carbonitrile] | 5.00 to 6.00 |
| Cc1ccc(F)c(-c2ccc3c(c2)CCN3C(=O)C2(F)CCN(C#N)C2)c1 (stereo not shown) [Example 40, 3-Fluoro-3-(5-(2-fluoro-5-methylphenyl)indoline-1-carbonyl)pyrrolidine-1-carbonitrile] | > 7.00 |
| N#CN1CCC(F)(C(=O)N2CCc3cc(-c4ccnn4Cc4ccccc4Cl)ccc32)C1 (stereo not shown) [Example 64, 3-(5-(1-(2-Chlorobenzyl)-1H-pyrazol-5-yl)indoline-1-carbonyl)-3-fluoropyrrolidine-1-carbonitrile] | 5.00 to 6.00 |
| N#CN1CCC(F)(C(=O)N2CCc3cc(-c4ccnn4Cc4ccccc4)ccc32)C1 (stereo not shown) [Example 35, 3-(5-(1-Benzyl-1H-pyrazol-5-yl)indoline-1-carbonyl)-3-fluoropyrrolidine-1-carbonitrile] | 5.00 to 6.00 |
| N#CN1CCC2(CCN(c3cccc(-c4ccccc4)c3)C2=O)C1 (stereo not shown) [Example 49, 7-([1,1′-Biphenyl]-3-yl)-6-oxo-2,7-diazaspiro[4,4]nonane-2-carbonitrile] | 6.00 to 7.00 |
| N#CN1CCC(F)(C(=O)N2CCc3cc(-c4ccnn4Cc4cccc(Cl)c4)ccc32)C1 (stereo not shown) [Example 65, 3-(5-(1-(3-Chlorobenzyl)-1H-pyrazol-5-yl)indoline-1-carbonyl)-3-fluoropyrrolidine-1-carbonitrile] | 6.00 to 7.00 |
| Cn1cc(-c2cc3c(cc2C#N)N(C(=O)[C@H]2CCN(C#N)C2)CC3)cn1 [Example 29, (S)-1-(1-Cyanopyrrolidine-3-carbonyl)-5-(1-methyl-1H-pyrazol-4-yl)indoline-6-carbonitrile] | 5.00 to 6.00 |
| CN(C(=O)C1(F)CCN(C#N)C1)c1cc(-c2ccccc2)on1 (stereo not shown) [Example 33, 1-Cyano-3-fluoro-N-methyl-N-(5-phenylisoxazol-3-yl)pyrrolidine-3-carboxamide] | 6.00 to 7.00 |
| C[C@@H]1CN(C#N)C[C@H]1C(=O)N1CCc2cc(-c3ccccc3Cl)ccc21 (relative stereo) [Example 13, (trans)-3-(5-(2-Chlorophenyl)indoline-1-carbonyl)-4-methylpyrrolidine-1-carbonitrile] | 6.00 to 7.00 |
| CC(C)Cn1nccc1-c1ccc2c(c1)CCN2C(=O)C1(F)CCN(C#N)C1 (stereo not shown) [Example 58, 3-Fluoro-3-(5-(1-isobutyl-1H-pyrazol-5-yl)indoline-1-carbonyl)pyrrolidine-1-carbonitrile] | 5.00 to 6.00 |
| CCN(C(=O)[C@@H]1CCN(C#N)C1)c1ccc(-c2ccc(C#N)cc2)cn1 [Example 44, (R)-1-Cyano-N-(5-(4-cyanophenyl)pyridin-2-yl)-N-ethylpyrrolidine-3-carboxamide] | 5.00 to 6.00 |
| N#CN1C[C@H]2CN(c3ncc(-c4ccccc4)s3)C(=O)[C@H]2C1 (relative stereo) [Example 48, (cis)-4-Oxo-5-(5-phenylthiazol-2-yl)hexahydropyrrolo[3,4-c]pyrrole-2(1H)-carbonitrile] | 5.00 to 6.00 |
| CN(Cc1cc(-c2ccccc2)no1)C(=O)C1CCN(C#N)C1 (stereo not shown) [Example 46, 1-Cyano-N-methyl-N-((3-phenylisoxazol-5-yl)methyl)pyrrolidine-3-carboxamide] | 5.00 to 6.00 |
| N#CN1CCC(F)(C(=O)N2CCc3ccc(-c4ccccc4)cc32)C1 (stereo not shown) [Example 15, 3-Fluoro-3-(6-phenylindoline-1-carbonyl)pyrrolidine-1-carbonitrile] | 6.00 to 7.00 |
| N#CN1CC[C@@](F)(C(=O)N2CCc3cc(-c4cccc(Cl)c4)cnc32)C1 [Example 55, (S)-3-(5-(3-Chlorophenyl)-2,3-dihydro-1H-pyrrolo[2,3-b]pyridine-1-carbonyl)-3-fluoropyrrolidine-1-carbonitrile] | 6.00 to 7.00 |
| CN(C(=O)[C@H]1CN(C#N)C[C@@H]1CO)c1ncc(-c2ccccc2)s1 (relative stereo) [Example 34, (trans)-1-Cyano-4-(hydroxymethyl)-N-methyl-N-(5-phenylthiazol-2-yl)pyrrolidine-3-carboxamide] | 6.00 to 7.00 |
| Cc1ccc2[nH]ncc2c1-c1ccc2c(c1)CCN2C(=O)C1(F)CCN(C#N)C1 (stereo not shown) [Example 41, 3-Fluoro-3-(5-(5-methyl-1H-indazol-4-yl)indoline-1-carbonyl)pyrrolidine-1-carbonitrile] | 6.00 to 7.00 |
| CN1CCN(C(=O)c2ccc(-c3ccc4c(c3)CCN4C(=O)C3(F)CCN(C#N)C3)cc2)CC1 (stereo not shown) [Example 38, 3-Fluoro-3-(5-(4-(4-methylpiperazine-1-carbonyl)phenyl)indoline-1-carbonyl)pyrrolidine-1-carbonitrile] | 5.00 to 6.00 |
| N#CN1CCC(F)(C(=O)N2CCc3cc(-c4ccccc4)ccc32)C1 (stereo not shown) [Example 14, 3-Fluoro-3-(5-phenylindoline-1-carbonyl)pyrrolidine-1-carbonitrile] | 6.00 to 7.00 |
| N#CN1CCC(F)(C(=O)N2CCc3cc(-c4ccnn4Cc4ccccn4)ccc32)C1 (stereo not shown) [Example 62, 3-Fluoro-3-(5-(1-(pyridin-2-ylmethyl)-1H-pyrazol-5-yl)indoline-1-carbonyl)pyrrolidine-1-carbonitrile] | 5.00 to 6.00 |
| C[C@@H]1CN(C#N)C[C@H]1C(=O)N1CCc2cc(-c3ccccc3)ccc21 [Example 19, (3S,4S)-3-Methyl-4-(5-phenylindoline-1-carbonyl)pyrrolidine-1-carbonitrile] | 6.00 to 7.00 |
| N#CN1CCC(F)(C(=O)N2CCc3cc(-c4ccnn4Cc4cccnc4)ccc32)C1 (stereo not shown) [Example 63, 3-Fluoro-3-(5-(1-(pyridin-3-ylmethyl)-H-pyrazol-5-yl)indoline-1-carbonyl)pyrrolidine-1-carbonitrile] | 5.00 to 6.00 |
| N#CN1CCC(F)(C(=O)N2CCc3cc(-c4cnn(Cc5ccccc5)c4)ccc32)C1 (stereo not shown) [Example 59, 3-(5-(1-Benzyl-1H-pyrazol-4-yl)indoline-1-carbonyl)-3-fluoropyrrolidine-1-carbonitrile] | 5.00 to 6.00 |
| N#CN1CC[C@](F)(C(=O)N2CCc3cc(-c4cccc(Cl)c4)cnc32)C1 [Example 56, (R)-3-(5-(3-Chlorophenyl)-2,3-dihydro-1H-pyrrolo[2,3-b]pyridine-1-carbonyl)-3-fluoropyrrolidine-1-carbonitrile] | > 7.00 |
| N#CN1CCC(F)(C(=O)N2CCc3cc(-c4ccnn4Cc4ccc(Cl)cc4)ccc32)C1 (stereo not shown) [Example 66, 3-(5-(1-(4-Chlorobenzyl)-1H-pyrazol-5-yl)indoline-1-carbonyl)-3-fluoropyrrolidine-1-carbonitrile] | 6.00 to 7.00 |

The remaining lines, values ahead:

| pIC50 | Structure (SMILES) |
| --- | --- |
| 5.00 to 6.00 | N#CN1CC[C@H](C(=O)N2CCc3c(-c4cccc(Cl)c4)ccnc32)C1 [Example 28, (S)-3-(4-(3-Chlorophenyl)-2,3-dihydro-1H-pyrrolo[2,3-b]pyridine-1-carbonyl)pyrrolidine-1-carbonitrile] |
| 6.00 to 7.00 | CCc1cccc(-c2cccc3c2CCN3C(=O)[C@@H]2CCN(C#N)C2)c1 [Example 50, (R)-3-(4-(3-Ethylphenyl)indoline-1-carbonyl)pyrrolidine-1-carbonitrile] |
| 6.00 to 7.00 | N#CN1CC[C@H](C(=O)N2CCc3c(-c4ccccc4)ccnc32)C1 [Example 27, (S)-3-(4-Phenyl-2,3-dihydro-1H-pyrrolo[2,3-b]pyridine-1-carbonyl)pyrrolidine-1-carbonitrile] |
| 5.00 to 6.00 | N#CN1CC[C@@H](C(=O)N2CCc3cc(-c4cccc5[nH]ncc45)cnc32)C1 [Example 61, (R)-3-(5-(1H-Indazol-4-yl)-2,3-dihydro-1H-pyrrolo[2,3-b]pyridine-1-carbonyl)-pyrrolidine-1-carbonitrile] |
| 6.00 to 7.00 | N#CN1CCC(F)(C(=O)N2CCc3cc(-c4ccccc4)cnc32)C1 (stereo not shown) [Example 22, 3-Fluoro-3-(5-phenyl-2,3-dihydro-1H-pyrrolo[2,3-b]pyridine-1-carbonyl)pyrrolidine-1-carbonitrile] |
| 6.00 to 7.00 | N#CN1CC[C@H](C(=O)N2CCCc3cc(-c4ccccc4)ccc32)C1 [Example 23, (S)-3-(6-Phenyl-1,2,3,4-tetrahydroquinoline-1-carbonyl)pyrrolidine-1-carbonitrile] |
| 5.00 to 6.00 | N#CN1CC[C@@H](C(=O)N2CCc3cc(-c4ccccc4)ccc32)C1 [Example 17, (R)-3-(5-Phenylindoline-1-carbonyl)pyrrolidine-1-carbonitrile] |
| 6.00 to 7.00 | N#CN1CC[C@H](C(=O)N2CCc3cc(-c4ccccc4)ccc32)C1 [Example 18, (S)-3-(5-Phenylindoline-1-carbonyl)pyrrolidine-1-carbonitrile] |
| 5.00 to 6.00 | CN(C(=O)C1CCN(C#N)C1)c1ccc(-c2ccccc2)cn1 (stereo in doubt) [Example 31, (S)-1-Cyano-N-methyl-N-(5-phenylpyridin-2-yl)pyrrolidine-3-carboxamide] |
| 5.00 to 6.00 | CN(C(=O)[C@H]1CCN(C#N)C1)c1cc(-c2ccccc2)ccn1 [Example 4, (S)-1-Cyano-N-methyl-N-(4-phenylpyridin-2-yl)pyrrolidine-3-carboxamide] |
| 6.00 to 7.00 | N#CN1CC[C@@H](C(=O)N2CCOc3ccc(-c4ccccc4)cc32)C1 [Example 25, (R)-3-(6-Phenyl-3,4-dihydro-2H-benzo[b][1,4]oxazine-4-carbonyl)pyrrolidine-1-carbonitrile] |
| 6.00 to 7.00 | C[C@H]1CN(C#N)C[C@@H]1C(=O)N1CCc2cc(-c3ccccc3)cnc21 (racemic) [Example 52, Trans-3-methyl-4-(5-phenyl-2,3-dihydro-1H-pyrrolo[2,3-b]pyridine-1-carbonyl)-pyrrolidine-1-carbonitrile] |

Reference: patent publication US10640498B2, “Compounds” (MISSION THERAPEUTICS LIMITED, priority 2016, dated 2020)
